Results taken from ChEMBL document CHEMBL4431361, “Development of indole sulfonamides as cannabinoid receptor negative allosteric modulators” (Bioorg Med Chem Lett, 2016).

How the values were obtained:
Cannabinoid receptor 1 = Cannabinoid receptor 1 (Homo sapiens, UniProt P21554); experiment: Negative allosteric modulation of human CB1 receptor expressed in CHO-K1 cells assessed as inhibition of CP55940 induced beta arrestin recruitment preincubated for 30 mins followed by addition of CP55940 for 90 mins by chemiluminescence assay; type: functional, cell-based
[1] = Apparent permeability of the compound at 10 uM after 5 hrs by PAMPA; type: ADME
[2] = Ratio of drug level in […] brain to blood at 30mg/kg, ip after 1 hr by HPLC/MS/MS method; type: ADME, organism-based
[3] = Ratio of drug level in NMRI mouse brain to blood after 2 hrs; type: ADME, tissue-based
[4] = Cmax in NMRI mouse blood at 10 mg/kg, po; type: ADME, organism-based; set-up: dose 10 mg/kg, route oral
[5] = Tmax in NMRI mouse at 10 mg/kg, po; type: ADME, organism-based; details: in vivo
[6] = Half life in NMRI mouse at 10 mg/kg, po; type: ADME, organism-based; details: in vivo
[7] = AUC (0 to 8 hrs) in NMRI mouse at 10 mg/kg, po; type: ADME, organism-based; set-up: time < 8 hr, dose 10 mg/kg, route oral; details: in vivo
[8] = Half life in human liver microsomes at 3 uM in presence of NADPH by LC-MS/MS analysis; type: ADME, Microsome
[9] = Ratio of drug level in NMRI mouse brain to blood after 4 hrs; type: ADME, tissue-based
[10] = Half life in rat liver microsomes at 3 uM in presence of NADPH by LC-MS/MS analysis; type: ADME, Microsome

Cannabinoid receptor 1, sequence (P21554 whole entry): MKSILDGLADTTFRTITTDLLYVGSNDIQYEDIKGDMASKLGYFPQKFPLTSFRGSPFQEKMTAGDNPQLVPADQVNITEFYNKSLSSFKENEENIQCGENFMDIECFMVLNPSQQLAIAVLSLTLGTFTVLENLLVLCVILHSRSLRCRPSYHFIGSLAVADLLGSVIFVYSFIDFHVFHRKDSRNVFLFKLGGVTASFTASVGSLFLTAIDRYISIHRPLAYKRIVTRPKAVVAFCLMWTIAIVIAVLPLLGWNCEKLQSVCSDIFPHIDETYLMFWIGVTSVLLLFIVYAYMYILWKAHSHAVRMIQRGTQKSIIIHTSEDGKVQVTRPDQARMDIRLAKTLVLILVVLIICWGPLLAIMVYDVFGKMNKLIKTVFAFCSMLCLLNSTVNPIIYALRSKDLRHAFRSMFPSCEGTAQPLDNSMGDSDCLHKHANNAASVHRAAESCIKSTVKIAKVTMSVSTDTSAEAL

## CCc1c(C(=O)NCCc2ccc(N3CCCCC3)cc2)[nH]c2ccc(Cl)cc12
Cannabinoid receptor 1
  IC50: 2 nM
[1]
  Papp at 5 h, 10 µM: 1.23 ×10⁻⁶ cm/s
[2]
  Kp at 1 h: 1.1

## CN(C)c1ccc(-c2ccc(CNS(=O)(=O)c3cc4ccccc4[nH]3)cc2)cc1
Cannabinoid receptor 1
  IC50: 3 nM

## Cc1c(S(=O)(=O)NCCCN2CCOCC2)[nH]c2ccccc12
Cannabinoid receptor 1
  IC50: > 1000 nM

## CCc1c(S(=O)(=O)NCCc2ccc(N(C)C)cc2)[nH]c2ccc(Cl)cc12
Cannabinoid receptor 1
  IC50: 130 nM

## O=S(=O)(NCc1ccc(-c2ccc(F)cc2F)cn1)c1cc2cc(Cl)ccc2[nH]1
Cannabinoid receptor 1
  IC50: 3 nM
[1]
  Papp at 5 h, 10 µM: 53.8 ×10⁻⁶ cm/s
[3]
  Kp at 2 h: 3.3
[4]
  Cmax: 848 ng/mL
[5]
  Tmax: 60 min
[6]
  half-life: 180 min
[7]
  AUC(0-t) at 8 h: 4700 ng·h/mL

## Cc1ccc(CNS(=O)(=O)c2[nH]c3ccccc3c2C)cc1
Cannabinoid receptor 1
  IC50: 200 nM
[8]
  half-life at 3 µM: 7 min

## CCc1c(S(=O)(=O)NCCc2ccc(N3CCOCC3)cc2)[nH]c2ccc(Cl)cc12
Cannabinoid receptor 1
  IC50: 500 nM
[8]
  half-life at 3 µM: 10 min

## CS(=O)(=O)c1ccc(-c2ccc(CNS(=O)(=O)c3cc4ccccc4[nH]3)cc2)cc1
Cannabinoid receptor 1
  IC50: 15 nM

## Cc1c(S(=O)(=O)NCCN2CCOCC2)[nH]c2ccccc12
Cannabinoid receptor 1
  IC50: > 1000 nM

## COc1ccc(CNS(=O)(=O)c2cc3ccccc3[nH]2)cc1
Cannabinoid receptor 1
  IC50: 200 to 400 nM
[8]
  half-life at 3 µM: 2 min

## O=S(=O)(NCc1ccc(-c2ccccc2)cc1)c1cc2ccc(F)cc2[nH]1
Cannabinoid receptor 1
  IC50: 5 nM

## O=C(O)c1ccc(-c2ccc(CNS(=O)(=O)c3cc4ccccc4[nH]3)cc2)cc1
Cannabinoid receptor 1
  IC50: > 1000 nM

## O=S(=O)(NCc1cccc(-c2ccc(F)cc2)c1)c1cc2ccccc2[nH]1
Cannabinoid receptor 1
  IC50: 137 nM

## O=S(=O)(NCc1ccc(-c2ccc(F)nc2F)cc1)c1cc2cc(Cl)ccc2[nH]1
Cannabinoid receptor 1
  IC50: 4 nM
[1]
  Papp at 5 h, 10 µM: 141 ×10⁻⁶ cm/s
[4]
  Cmax: 672 ng/mL
[5]
  Tmax: 240 min
[6]
  half-life: 474 min
[7]
  AUC(0-t) at 8 h: 4380 ng·h/mL
[9]
  Kp at 4 h: 0.8

## Cc1c(S(=O)(=O)NCc2ccc(Cl)cc2)[nH]c2ccccc12
Cannabinoid receptor 1
  IC50: 400 nM

## COc1ccc(CNS(=O)(=O)c2cc3cc(OC)ccc3[nH]2)cc1
Cannabinoid receptor 1
  IC50: 400 nM

## CCOc1ccc(-c2ccc(CNS(=O)(=O)c3cc4ccccc4[nH]3)cc2)cn1
Cannabinoid receptor 1
  IC50: 10 nM

## O=S(=O)(NCc1ccc(-c2ccc(F)cc2)cc1F)c1cc2cc(Cl)ccc2[nH]1
Cannabinoid receptor 1
  IC50: 21 nM
[8]
  half-life at 3 µM: 146 min
[10]
  half-life at 3 µM: 112 min

## Cc1c(S(=O)(=O)NCCc2ccc(N3CCCCC3)cc2)[nH]c2ccccc12
Cannabinoid receptor 1
  IC50: 200 nM

## O=S(=O)(NCc1ccc(-c2ccc(F)cc2)cn1)c1cc2cc(Br)ccc2[nH]1
Cannabinoid receptor 1
  IC50: 9 nM
[10]
  half-life at 3 µM: 25 min

## NC(=O)c1cccc(-c2ccc(CNS(=O)(=O)c3cc4ccccc4[nH]3)cc2)c1
Cannabinoid receptor 1
  IC50: 300 nM

## Cc1c(S(=O)(=O)NCc2cccc(Cl)c2)[nH]c2ccccc12
Cannabinoid receptor 1
  IC50: 800 nM

## COc1ccc2[nH]c(S(=O)(=O)NCc3ccc(-c4ccc(OC(F)(F)F)cc4)cc3F)cc2c1
Cannabinoid receptor 1
  IC50: 40 nM
[10]
  half-life at 3 µM: < 15 min

## COc1ccc2[nH]c(S(=O)(=O)NCc3ccc(-c4ccc(F)nc4)cc3)cc2c1
Cannabinoid receptor 1
  IC50: 3 nM
[8]
  half-life at 3 µM: < 15 min
[10]
  half-life at 3 µM: < 15 min

## O=S(=O)(NCc1ccc(-c2ccccc2)cc1)c1[nH]c2ccccc2c1CO
Cannabinoid receptor 1
  IC50: 12 nM

## O=S(=O)(NCc1ccc(-c2ccc(F)cc2F)cc1)c1cc2cc(Cl)ccc2[nH]1
Cannabinoid receptor 1
  IC50: 4 nM
[8]
  half-life at 3 µM: 111 min
[10]
  half-life at 3 µM: 84 min

## COc1ccc(CNS(=O)(=O)c2[nH]c3ccccc3c2C)cc1
Cannabinoid receptor 1
  IC50: 200 nM

## COc1ccc(CNS(=O)(=O)c2[nH]c3ccc(Cl)cc3c2C)cc1
Cannabinoid receptor 1
  IC50: 500 nM

## Cc1c(S(=O)(=O)NCc2ccc(C(F)(F)F)cc2)[nH]c2ccccc12
Cannabinoid receptor 1
  IC50: 250 nM

## Cc1c(S(=O)(=O)NCCc2ccccc2)[nH]c2ccccc12
Cannabinoid receptor 1
  IC50: 200 to 1000 nM
[8]
  half-life at 3 µM: 3 min

## Cc1c(S(=O)(=O)NCC2CCCCC2)[nH]c2ccccc12
Cannabinoid receptor 1
  IC50: > 1000 nM

## COc1ccc2[nH]c(S(=O)(=O)NCc3ccc(-c4ccc(CO)cc4)cc3)cc2c1
Cannabinoid receptor 1
  IC50: 112 nM

## Cc1c(S(=O)(=O)NCCc2ccc(N3CCOCC3)cc2)[nH]c2ccccc12
Cannabinoid receptor 1
  IC50: > 1000 nM

## Cc1c(S(=O)(=O)NCc2ccccn2)[nH]c2ccccc12
Cannabinoid receptor 1
  IC50: > 1000 nM

## Cc1cc(-c2ccc(F)cc2)ccc1CNS(=O)(=O)c1cc2cc(Cl)ccc2[nH]1
Cannabinoid receptor 1
  IC50: > 1000 nM

## O=S(=O)(NCc1ccc(-c2ccccc2)cc1)c1cc2ccccc2[nH]1
Cannabinoid receptor 1
  IC50: 2 nM

## O=S(=O)(NCc1ccc(-c2ccccc2)cc1)c1cc2cc(Br)ccc2[nH]1
Cannabinoid receptor 1
  IC50: 6 nM
[10]
  half-life at 3 µM: < 15 min

## COCc1c(S(=O)(=O)NCc2ccc(-c3ccccc3)cc2)[nH]c2ccccc12
Cannabinoid receptor 1
  IC50: 10 nM

## COc1ccc2[nH]c(S(=O)(=O)NCc3ccc(-c4ccc(C#N)cc4)cc3)cc2c1
Cannabinoid receptor 1
  IC50: 8 nM
[10]
  half-life at 3 µM: 26 min

## CC(NS(=O)(=O)c1cc2ccccc2[nH]1)c1ccc(-c2ccc(F)cc2)cc1 (configuration not stated)
Cannabinoid receptor 1
  IC50: 41 nM

## O=S(=O)(NCc1ccc(-c2cccnc2)cc1)c1cc2ccccc2[nH]1
Cannabinoid receptor 1
  IC50: 7 nM
[10]
  half-life at 3 µM: < 15 min

## O=S(=O)(NCc1ccc(-c2ccc(F)cc2)cc1)c1cc2ccccc2[nH]1
Cannabinoid receptor 1
  IC50: 1 nM
[10]
  half-life at 3 µM: < 15 min

## O=S(=O)(NCc1ccc(-c2ccc(F)cc2)cc1)c1cc2cc(Br)ccc2[nH]1
Cannabinoid receptor 1
  IC50: 12 nM
[10]
  half-life at 3 µM: 130 min

## CS(=O)(=O)c1ccc(-c2ccc(CNS(=O)(=O)c3cc4cc(Cl)ccc4[nH]3)cc2)cc1
Cannabinoid receptor 1
  IC50: 15 nM
[8]
  half-life at 3 µM: 41 min
[10]
  half-life at 3 µM: 36 min

## Nc1ccc(-c2ccc(CNS(=O)(=O)c3cc4cc(Cl)ccc4[nH]3)cc2)cn1
Cannabinoid receptor 1
  IC50: 85 nM

## Cc1c(S(=O)(=O)NCc2ccccc2)[nH]c2ccccc12
Cannabinoid receptor 1
  IC50: > 1000 nM

## Cc1c(S(=O)(=O)NCc2cccnc2)[nH]c2ccccc12
Cannabinoid receptor 1
  IC50: > 1000 nM

## Cc1c(S(=O)(=O)NCCc2ccc(N(C)C)cc2)[nH]c2ccccc12
Cannabinoid receptor 1
  IC50: 300 nM
[8]
  half-life at 3 µM: 13 min

## CCc1c(S(=O)(=O)NCCc2ccc(N3CCCCC3)cc2)[nH]c2ccc(Cl)cc12
Cannabinoid receptor 1
  IC50: 120 nM
[8]
  half-life at 3 µM: 14 min

## O=S(=O)(NCc1ccc(-c2ccc(F)cc2F)cn1)c1cc2cc(Br)ccc2[nH]1
Cannabinoid receptor 1
  IC50: 4 nM
[8]
  half-life at 3 µM: 53 min
[10]
  half-life at 3 µM: 33 min

## CCc1c(S(=O)(=O)NCc2ccc(Cl)cc2)[nH]c2ccc(Cl)cc12
Cannabinoid receptor 1
  IC50: > 1000 nM

## Cc1cc(CNS(=O)(=O)c2cc3cc(Cl)ccc3[nH]2)ccc1-c1ccc(F)cc1
Cannabinoid receptor 1
  IC50: > 1000 nM

## Cc1ccc(-c2ccc(CNS(=O)(=O)c3cc4ccccc4[nH]3)cc2)cc1
Cannabinoid receptor 1
  IC50: 3 nM

## O=S(=O)(NCc1ccc(-c2ccc(F)nc2)cc1)c1cc2ccc(Cl)cc2[nH]1
Cannabinoid receptor 1
  IC50: 5 nM
[8]
  half-life at 3 µM: 22 min
[10]
  half-life at 3 µM: 23 min
[3]
  Kp at 2 h: 2.7

## O=S(=O)(NCc1ccc(-c2ccccc2)cc1)c1cc2ccc(Cl)cc2[nH]1
Cannabinoid receptor 1
  IC50: 4 nM
[10]
  half-life at 3 µM: < 15 min

## O=S(=O)(NCc1ccc(-c2ccsc2)cc1)c1cc2ccccc2[nH]1
Cannabinoid receptor 1
  IC50: 12 nM

## COc1cc(-c2ccc(CNS(=O)(=O)c3cc4ccccc4[nH]3)cc2)ccc1O
Cannabinoid receptor 1
  IC50: 33 nM

## COc1ccc(-c2ccc(CNS(=O)(=O)c3cc4ccccc4[nH]3)cc2)cc1
Cannabinoid receptor 1
  IC50: 2 nM

## Cc1c(S(=O)(=O)NCc2ccc(Cl)c(Cl)c2)[nH]c2ccccc12
Cannabinoid receptor 1
  IC50: 800 nM

## Cc1c(S(=O)(=O)NCc2ccc(-c3ccccc3)cc2)[nH]c2ccccc12
Cannabinoid receptor 1
  IC50: 8 nM

## COc1ccc(-c2ccc(CNS(=O)(=O)c3cc4ccccc4[nH]3)cc2)c(OC)c1
Cannabinoid receptor 1
  IC50: 22 nM
